# Results published in patent publication EP0135194A1, “Azetidinones and their production” (Takeda Chemical Industries, Ltd., priority 1983, dated 1985).
# Counter-ions that a name gives are not always drawn.
# How the values were obtained:
# Assay in all cases: MIC by agar dilution method
# Format in all cases: cell-based
# [1] = test system: Proteus vulgaris IFO 3988; details: IFO3988, test organism (3), Trypticase soy agar, about 10^8 CFU/mℓ, overnight at 37°C
# Protocol: (§1) With regard to the objective compounds as obtained in Examples 2 to 5 and 17 to 19, MICs (µg/mℓ) were measured by the method to be described below and the results are tabulated in the following table.
# (§2) The MIC of a test compound was determined by the agar dilution method. Thus, 1.0 mℓ each of successively diluted,; aqueous solutions of a test compound are poured in a petri dish, respectively, and then 9.0 mℓ of Trypticase soy agar was poured, followed by mixing. A suspension (about 10^8 CFU/ mℓ) of a test organism was smeared on the mixed agar plates. After incubation overnight at 37°C, the minimum concentration of the test compound to inhibit fully the growth of the test organism is determined as the minimal inhibitory concentration (MIC).
# (§3) • (1) Escherchia coli NIHJ JC-2; • (2) Serratia marcescens IFO 12648 • (3) Proteus vulgaris IFO 3988 • (4) Proteus mirabilis IFO 3849 • (5) Pseudomonas aeruginosa IFO 3455 • (6) Enterobacter cloacae IFO 12937
# [2] = test system: Escherchia coli NIHJ JC-2; details: test organism (1); Trypticase soy agar, about 10^8 CFU/mℓ, overnight at 37°C
# Protocol: as §1, §2, §3
# [3] = test system: Proteus mirabilis IFO 3849; details: IFO3849, test organism (4), Trypticase soy agar, about 10^8 CFU/mℓ, overnight at 37°C
# Protocol: as §1, §2, §3
# [4] = test system: Enterobacter cloacae IFO 12937; details: IFO12937, test organism (6), Trypticase soy agar, about 10^8 CFU/mℓ, overnight at 37°C
# Protocol: as §1, §2, §3
# [5] = test system: Pseudomonas aeruginosa IFO 3455; details: IFO3455, test organism (5), Trypticase soy agar, about 10^8 CFU/mℓ, overnight at 37°C
# Protocol: as §1, §2, §3
# [6] = test system: Serratia marcescens IFO 12648; details: IFO12648, test organism (2), Trypticase soy agar, about 10^8 CFU/mℓ, overnight at 37°C
# Protocol: as §1, §2, §3
Structure (SMILES),MIC [1] [µg/mL],MIC [2] [µg/mL],MIC [3] [µg/mL],MIC [4] [µg/mL],MIC [5] [µg/mL],MIC [6] [µg/mL]
"NC(=O)OC[C@H]1[C@H](NC(=O)/C(=N\OCC(=O)O)c2csc(N)n2)C(=O)N1OCC(=O)O (relative stereo) [Example 17, trans-3-[2-(2-aminothiazol-4-yl)-(Z)-2-carboxymethoxyiminoacetamido]-4-carbamoyloxymethyl-l-carboxy-methoxy-2-azetidinone disodium salt]",0.39,0.39,0.39,0.78,100,0.39
"CC(C)(O/N=C(\C(=O)N[C@@H]1C(=O)N(OCC(=O)O)[C@H]1COC(N)=O)c1csc(N)n1)C(=O)O (relative stereo) [Example 18, trans-3-[2-(2-aminothiazol - 4-yl) - (Z) -2-(1-carboxy-1-methylethoxyimino)acetamido]-4-carbamoyloxymethyl-l-carboxymethoxy-2-azetidinone disodium salt]",< 0.1,0.78,< 0.1,0.78,12.5,0.39
"CC(C)(O/N=C(\C(=O)N[C@H]1CN(OCC(=O)O)C1=O)c1csc(N)n1)C(=O)O [Example 5, (3S)-3-[2-(2-aminothiazol-4-yl)-(Z)-2-(1-carboxy-1-methylethoxyimino)acetamido]-1-carboxymethoxy-2-azetidinone disodium salt]",0.78,0.78,1.56,50,6.25,1.56

# The next lines start with the values.
MIC [1] [µg/mL],MIC [2] [µg/mL],MIC [3] [µg/mL],MIC [4] [µg/mL],MIC [5] [µg/mL],MIC [6] [µg/mL],Structure (SMILES)
0.39,0.39,0.39,12.5,> 100,0.39,"CO/N=C(\C(=O)N[C@@H]1C(=O)N(OCC(=O)O)[C@H]1C)c1csc(N)n1 [Example 2, (3S,4S)-3-[2-aminothiazol-4-yl)-(Z)-2-methoxyiminoacetamido]-1-carboxymethoxy-4-methyl-2-azetidinone monosodium salt]"
< 0.1,0.39,< 0.1,12.5,6.25,0.39,"C[C@H]1[C@H](NC(=O)/C(=N\OC(C)(C)C(=O)O)c2csc(N)n2)C(=O)N1OCC(=O)O [Example 3, (3S,4S)-3-[2-(2-aminothiazol-4-yl)-(Z)-2-(1-carboxy-1-methylethoxyimino)acetamido]-1-carboxymethoxy-4-methyl-2-azetidinone disodium salt]"
1.56,12.5,12.5,> 100,25,6.25,"CCN1CCN(C(=O)N[C@@H](C(=O)N[C@@H]2C(=O)N(OCC(=O)O)[C@H]2C)c2ccccc2)C(=O)C1=O [Example 4, (3S,4S)-1-carboxymethoxy-3-[(D)-2-(4-ethyl-2,3-dioxopiperazine-1-carbonylamino)-2-phenylacetamido]-4-methyl-2-azetidinone monosodium salt]"
0.39,0.39,0.39,50,> 100,0.39,"C[C@H]1[C@H](NC(=O)/C(=N\OCC(=O)O)c2csc(N)n2)C(=O)N1OCC(=O)O [Example 19, (3S,4S)-3-[2-(2-aminothiazol-4-yl)-(Z)-2-carboxymethoxy-iminoacetamido]-1-carboxymethoxy-4-methyl-2-azetidinone disodium salt]"
